# Columns and labels:
# BRAF-MEK1 complex = BRAF-MEK1 complex (Homo sapiens, UniProt Q02750); settings: HCT116 cells, 200 nM, 1 hour
# MEK-NL = biological target: T1, MEK-NL (Homo sapiens, UniProt Q02750); test: Tracer buildup curves on MEK-NLuc (NanoBRET); type: cell-based; settings: HEK293T cells, 2 hrs at 37° C.; read-out: binding affinity to MEK-NL (tracer buildup curves)
# T1 construct: expressed in transfected cells; host or cells: HEK293T
# Method: (v) Tram-bo and PD-bo buildup curves measure on MEK-NLuc. A human C-terminal NanoLuc fusion of MEK was transfected as mentioned above at a concentration of […] in combination with […] of carrier DNA. […] A 20x solution was added to each well to give final concentrations of 2, 1, 0.5, 0.1, 0.05, 0.01, 0.001, 0.0001 mM for PD-bo, and 1, 0.1, 0.05, 0.01, 0.005, 0.001, 0.0001, 0.00001 for Tram-bo. […] All data were analyzed using Prism 8 (GraphPad)
# [1] = tested on: luciferase-tagged human KSR1, KSR2, ARAF, BRAF, and CRAF/RAF1; test: RAF family tram-bo buildup curves (NanoBRET); type: cell-based; settings: BRET buildup curves with increasing tracer concentrations
# Method: Human c-terminal NanoLuc fusions versions of ARAF (Uniprot P10398), BRAF (UniProt P15056), CRAF (Uniprot P04049), KSR1 (Uniprot Q8IVT5), and KSR2 (Uniprot Q6VAB6) were transfected as mentioned above at a concentration of 0.1 µg/mL in combination with 9.9 µg/mL of carrier DNA. All RAF constructs from Promega. […] A 20x tram-bo solution was added to each well to give final concentrations of 4, 1, 0.5, 0.1, 0.05, 0.01, 0.001, 0.0001 µM. […] All data were analyzed using Prism 8 (GraphPad).
# [2] = biological target: T2, mouse KSR1-luc (KSR-bound MEK) (UniProt Q02750+Q61097); test: NanoBRET in-cell steady-state competition with tram-bo on KSR1-luc; type: cell-based
# T2 construct: expressed in transfected cells; host or cells: HEK293T
# KSR1-MEK1 complex = KSR1-MEK1 complex (UniProt Q02750+Q61097, P775N); settings: HCT116 cells, 200 nM, 1 hour
# MEK1-luc = MEK1-luc (Homo sapiens, UniProt Q02750); test: NanoBRET washout / intracellular residence time on MEK1-luc; settings: cells pre-treated with MEKi, washed, 1 µM tram-bo added
# KRAS-G12S A549 cells = test: Long-term clonogenic assay; type: cell-based, human; settings: 10 nM final concentration, in comparison to amide-linker compounds (eg. 1, 3)
# Method: Cells were plated at a density of 6,000 cells per well in 6-well plates in 3 mL of culture medium. Twenty-four hours after seeding, compounds dissolved in DMSO or DMSO-only vehicles were added directly to the culture media at a 1:1000 dilution. Following 10 days of culture, cells were washed 2x in PBS, fixed in ice-cold methanol for 10 minutes, stained with crystal-violet at room temperature for 10 minutes, and subsequently washed three times in water. Plates were allowed to dry overnight before imagining with an Epson V600 scanner.
# HCT116 cells = test: Cell proliferation/viability assay under low-adherence conditions; type: cell-based, human
# Method: A375, A549, HCT116, and SKMEL-239 cells were plated in Corning Costar Ultra-Low Attachment 96-well plates (Reference number 3434). After 24 hours of incubation at 37° C., cells were treated with inhibitors (0.1% DMSO in final volume). Cells were grown for five days, and resazurin sodium salt was added at a final concentration of 0.01 µg/µL. Fluorescence was measured using a Molecular Devices SpectraMax M5 spectrophotometer after a 4-24-hour incubation with resazurin solution. Technical triplicate values were averaged for each experiment, and biological replicate values are represented as average +/- standard deviation. For each cell line, logEC50 values of inhibitors were statistically compared using the extra sum-of-squares F test in GraphPad Prism 8 (FIGS. 57, 58, 67, 68, 69).
# [3] = tested on: MEK1 and MEK2 (kinase panel incl. BRAF, CRAF); test: In vitro kinase profiling, direct binding assays; settings: 1 µM
# [4] = tested on: MEK1, MEK2 and upstream kinases BRAF, CRAF; test: In vitro kinase profiling, substrate phosphorylation assays; type: biochemical; settings: incl. BRAF and CRAF phosphorylation of MEK1 as substrate
# [5] = tested on: phosphorylated ERK1/2 (T202/Y204); test: Immunoblot of RAS/ERK pathway inhibition; type: cell-based, human; settings: 1 hour, increasing concentrations, relative to trametinib
# Method: Cells were plated at a density of 300,000 cells per well in 6-well plates in 2 mL of culture medium. 24 hours after seeding, cells were treated with compounds or DMSO at a 1:1000 dilution (0.1 % DMSO in final volume). […] Samples were normalized to a protein content of 5 µg/µL in 100 µL total volume, and 20 µL of 6x SDS was added. […] Transfers were confirmed using ponceau red, washed, and then blocked for 1 hour with 5% BSA TBS-T, prior to overnight incubation with primary antibodies including phospho-ERK1/2 T202/Y204 and total ERK1/2 (Cell Signaling Technologies (CST) 9101S and 4695S, respectively) in 5% BSA TBS-T. The next day, blots were washed extensively, and incubated in secondary antibody (Anti-Rabbit IgG HRP-Linked CST 7074S).
# [6] = HCT116, low-adherence conditions
smiles,measurement,setting,value
"CNS(=O)(=O)Nc1nccc(Cc2c(C)c3ccc(Oc4ncccn4)cc3oc2=O)c1F [CH5126766, reference compound]",effect on BRAF pulled down via endogenous MEK1 (co-IP),BRAF-MEK1 complex,enhances interactions between endogenous BRAF and MEK1
Cc1c(=O)n(C)c(Nc2ccc(I)cc2F)c2c(=O)n(C3CC3)c(=O)n(-c3cccc(NC(=O)CCOCCOCCNC(=O)CCC4=[N+]5C(=Cc6ccc(-c7ccc[nH]7)n6[B-]5(F)F)C=C4)c3)c12 [Tram-bo],EC50,MEK-NL,4.7 nM
same,"tighter binding on KSR1-luc and KSR2-luc relative to ARAF-luc, BRAF-luc, and CRAF-luc",[1],~ 10 fold
O=C(c1ccc(F)c(F)c1Nc1ccc(I)cc1F)N1CC(O)([C@@H]2CCCCN2)C1 [cobimetinib],IC50,"[2]; HEK293T cells, 1 µM tram-bo tracer, equilibrium binding, mean ± s.e.m., read-out: steady-state IC50 against KSR1-luc",5.1 ± 0.7 nM
same,difference in potency between KSR1-luc and MEK1-luc,[2]; IC50 MEK1-luc vs KSR1-luc,~20 fold
same,effect on complex stability of K1 (KSR1 P775N) and B2 (BRAF R662A) mutants with MEK (co-IP),KSR1-MEK1 complex,did not alter complex stability
same,dissociation kinetics after washout on MEK1-luc,MEK1-luc,dissociated more readily
Cc1c(=O)n(C)c(Nc2ccc(I)cc2F)c2c(=O)n(C3CC3)c(=O)n(-c3cccc(NS(=O)(=O)NC4CC4)c3)c12 [compound 5],growth inhibition in long-term clonogenic assay,KRAS-G12S A549 cells,enhanced and durable growth inhibition
CCN(C)S(=O)(=O)Nc1cccc(-n2c(=O)n(C3CC3)c(=O)c3c(Nc4ccc(I)cc4F)n(C)c(=O)c(C)c32)c1 [compound 6],growth inhibition in long-term clonogenic assay,KRAS-G12S A549 cells,enhanced and durable growth inhibition
CNS(=O)(=O)Nc1cccc(-n2c(=O)n(C3CC3)c(=O)c3c(Nc4ccc(I)cc4F)n(C)c(=O)c(C)c32)c1 [trametiglue],potency and off-rate kinetics in cellular target engagement assays,"[2]; KSR-luc or MEK-luc reporters, residence time at 6.25 nM",retained similar potency and off-rate kinetics as trametinib
same,improvement in potency relative to CH5126766,HCT116 cells; [6],~200 fold
same,improvement in potency relative to trametinib,HCT116 cells; [6],approximately 7 fold
same,IC50,"HCT116 cells; low-adherence conditions, five days, resazurin, read-out: IC50 in the cell line HCT116",0.07 ± 0.04 nM
same,direct interaction with isolated BRAF or CRAF in binding experiments,[3],no direct interactions towards isolated BRAF or CRAF
same,selectivity in direct binding assays,[3],strong selectivity towards MEK1 and MEK2
same,inhibition in substrate phosphorylation assays,[4],"not only inhibited MEK1 and MEK2, but also upstream kinases"
same,growth inhibition in long-term clonogenic assay,KRAS-G12S A549 cells,enhanced and durable growth inhibition
same,inhibition of RAS-MAPK signaling as measured by pERK,[5],higher potency inhibitor of RAS-MAPK signaling
same,effect on BRAF pulled down via endogenous MEK1 (co-IP),BRAF-MEK1 complex,markedly enhanced capture of BRAF

# Reference: patent US20230266321A1, “LIVE CELL ENGAGEMENT ASSAY” (Icahn School of Medicine at Mount Sinai, priority 2020, published 2023)
